These results are taken from patent US20140011799A1 (Bristol-Myers Squibb Company, priority 2012, published 2014).

The target in one experiment is T1, Endothelial lipase (EL) (Homo sapiens, UniProt Q9Y5X9).
T1 construct: HT-1080 cells that were transformed using RAGE technology (Athersys) to overexpress endogenous EL; endogenous in cells; conditioned medium used
T1 sequence (Q9Y5X9 21-500): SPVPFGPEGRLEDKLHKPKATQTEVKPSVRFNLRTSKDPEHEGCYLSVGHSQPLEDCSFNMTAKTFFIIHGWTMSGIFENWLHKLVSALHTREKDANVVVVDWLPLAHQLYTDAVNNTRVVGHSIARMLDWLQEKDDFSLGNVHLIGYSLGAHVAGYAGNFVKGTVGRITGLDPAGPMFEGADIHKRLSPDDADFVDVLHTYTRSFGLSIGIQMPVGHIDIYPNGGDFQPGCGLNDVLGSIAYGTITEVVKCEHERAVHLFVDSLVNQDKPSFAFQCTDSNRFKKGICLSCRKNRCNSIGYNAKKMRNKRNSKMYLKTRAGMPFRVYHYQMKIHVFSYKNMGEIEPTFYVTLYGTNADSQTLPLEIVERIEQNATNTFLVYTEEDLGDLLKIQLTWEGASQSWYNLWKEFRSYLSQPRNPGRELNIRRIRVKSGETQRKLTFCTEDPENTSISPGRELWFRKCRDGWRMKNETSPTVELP
Briefly: Endothelial lipase (EL) enzymatic assay, fluorescent substrate A10070 in DMPG vesicles. The settings on record: EL from conditioned media of HT-1080 cells; compound preincubated 30 min at 37° C; read-out: EL IC50. In kind it is biochemical. The procedure, abridged: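 Vesicles prepared: A10070 dried with DMPG, resuspended in HEPES pH 8.0/NaCl/EDTA, sonicated on ice. Enzyme incubated with compound 30 min at 37° C. Reaction started with 1:10 diluted vesicles. Fluorescence (490/530 nm) followed 60 min; slope from 300–900 secs gives rate.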

The target in the next experiment is T2, hepatic lipase (HL) (Homo sapiens, UniProt P11150).
T2 construct: made in house; host or cells: COS cells (conditioned medium, partially purified)
T2 sequence (P11150 23-499): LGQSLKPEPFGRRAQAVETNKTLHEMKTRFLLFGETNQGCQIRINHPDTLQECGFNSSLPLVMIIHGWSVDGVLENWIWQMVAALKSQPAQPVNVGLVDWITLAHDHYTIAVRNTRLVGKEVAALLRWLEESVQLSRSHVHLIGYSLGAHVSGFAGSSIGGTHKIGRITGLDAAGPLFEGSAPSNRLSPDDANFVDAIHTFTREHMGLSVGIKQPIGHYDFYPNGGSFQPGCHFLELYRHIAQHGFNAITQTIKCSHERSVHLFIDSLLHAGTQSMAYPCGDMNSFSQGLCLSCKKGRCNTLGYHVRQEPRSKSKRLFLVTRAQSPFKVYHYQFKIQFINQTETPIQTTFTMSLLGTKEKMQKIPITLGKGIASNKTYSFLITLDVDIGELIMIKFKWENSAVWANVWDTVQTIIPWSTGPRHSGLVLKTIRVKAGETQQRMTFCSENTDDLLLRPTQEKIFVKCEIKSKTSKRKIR
Briefly: Hepatic lipase (HL) enzymatic assay, fluorescent substrate A10070 in DMPG vesicles. The conditions noted are these: HL partially purified from conditioned media of COS cells; compound preincubated 30 min at 37° C; read-out: HL IC50. In kind it is biochemical. On the procedure:
Endothelial lipase (EL) and hepatic lipase (HL) activities were measured using a fluorescent substrate, A10070, (Invitrogen, CA) doped into an artificial vesicle containing DMPG (Avanti Polar Lipids) as the excipient. Vesicles were prepared by combining 571 μL of 29 mM DMPG in a 1:1 mixture of MeOH and CHCl3 with 2000 μL of 1 mM A10070 in a 1:1 mixture of MeOH and CHCl3. The mixture was dried under nitrogen in multiple vials then resuspended in 20 mL total volume of 50 mM HEPES pH 8.0 buffer containing 50 mM NaCl and 0.2 mM EDTA. The sample was allowed to sit at room temperature for 15 min and then was sonicated 3×4 mins on ice with a Branson Sonicator using duty cycle 1. This preparation provides vesicles with a mole fraction of 0.11 for the FRET substrate.
The enzymatic assay was measured using 384-well white Optiplates. Each well contained 20 μL of assay buffer (50 mM HEPES pH 8.0, 50 mM NaCl and 1 mM CaCl2) and 0.25 μL of a DMSO solution containing a compound of interest. EL or HL (10 μL) was added and allowed to incubate with the compound for 30 min at 37° C. The source of EL was conditioned media obtained from HT-1080 cells that were transformed using RAGE technology (Athersys) to overexpress endogenous EL, and HL was partially purified from conditioned media obtained from COS cells overexpressing HL. The reaction was started by the addition of 10 μL of a 1:10 dilution of vesicles. The final total reaction volume was […]. The reaction rates were measured on a Gemini plate reader with an excitation wavelength of 490 nm and an emission wavelength of 530 nm. Readings were taken over a period of 60 minutes, and the slope between 300 and 900 secs of the readout was used to calculate the rate of the reaction.

A word on the IC50: it is the concentration at which inhibition is half-maximal. As for `CC(O)CCNC(=O)Cc1nnc(C(c2nc3ccc(-c4ccc(C(=O)N5CCOCC5)cc4)cc3s2)S(=O)(=O)Cc2ccccc2)o1` (centres unmarked) [Example 177, 2-(5-((benzylsulfonyl)(6-(4-(4-morpholinylcarbonyl)phenyl)-1,3-benzothiazol-2-yl)methyl)-1,3,4-oxadiazol-2-yl)-N-(3-hydroxybutyl) acetamide], the values for the IC50 on Endothelial lipase (EL) and at hepatic lipase (HL) were 14 nM and 591 nM, respectively.

As for `O=C1NC(=O)C(Cc2nnc(C(c3nc4ccc(-c5ccccc5)c(F)c4s3)S(=O)(=O)Cc3ccccc3)o2)S1` (centres unmarked) [Example 162, 5-((5-((benzylsulfonyl)(7-fluoro-6-phenyl-1,3-benzothiazol-2-yl)methyl)-1,3,4-oxadiazol-2-yl)methyl)-1,3-thiazolidine-2,4-dione], the IC50 at Endothelial lipase (EL) and on hepatic lipase (HL) was less than 10 nM in each case.

`NCCS(=O)(=O)C(c1nnc(CC2SC(=O)NC2=O)o1)c1nc2ccc(-c3ccccc3)cc2s1` (centres unmarked) [Example 184, 5-((5-(((2-aminoethyl)sulfonyl)(6-phenyl-1,3-benzothiazol-2-yl)methyl)-1,3,4-oxadiazol-2-yl)methyl)-1,3-thiazolidine-2,4-dione]: the IC50 on Endothelial lipase (EL) and at hepatic lipase (HL) was less than 10 nM in each case.

As to `NS(=O)(=O)NCc1nnc(C(c2nc3ccc(-c4cncnc4)cc3s2)S(=O)(=O)Cc2ccccc2)o1` (centres unmarked) [Example 125, N-((5-((benzylsulfonyl)(6-(5-pyrimidinyl)-1,3-benzothiazol-2-yl)methyl)-1,3,4-oxadiazol-2-yl)methyl) sulfamide], the results for the concentration for half-maximal inhibition (IC50) at Endothelial lipase (EL) and on hepatic lipase (HL) were less than 10 nM and 103 nM, respectively.

As to `C=CCS(=O)(=O)C(c1nnc(CNS(N)(=O)=O)o1)c1nc2ccc(-c3ccccc3)cc2s1` (centres unmarked) [Example 120, N-((5-((allylsulfonyl)(6-phenyl-1,3-benzothiazol-2-yl)methyl)-1,3,4-oxadiazol-2-yl)methyl)sulfamide], the IC50 on Endothelial lipase (EL) and on hepatic lipase (HL) was less than 10 nM throughout.

On to `CN(C)C(=O)c1ccc(-c2ccc3nc(C(c4nnc(CNS(=O)(=O)NC(=O)OC(C)(C)C)o4)S(=O)(=O)Cc4ccccc4)sc3c2)cc1Cl` (centres unmarked) [Example 141, tert-butyl (((5-((benzylsulfonyl)(6-(3-chloro-4-(dimethylcarbamoyl)phenyl)-1,3-benzothiazol-2-yl)methyl)-1,3,4-oxadiazol-2-yl)methyl)sulfamoyl) carbamate], for which the figures for the IC50 on Endothelial lipase (EL) and at hepatic lipase (HL) were less than 10 nM and 50 nM, respectively.

Consider `CS(=O)(=O)C(c1nnc(CC2SC(=O)NC2=O)o1)c1nc2cc(C(F)(F)F)c(-c3ccccc3)cc2s1` (centres unmarked) [Example 164, 5-((5-((methylsulfonyl)(6-phenyl-5-(trifluoromethyl)-1,3-benzothiazol-2-yl)methyl)-1,3,4-oxadiazol-2-yl)methyl)-1,3-thiazolidine-2,4-dione], for which the IC50 on Endothelial lipase (EL) is less than 10 nM; on hepatic lipase (HL), 22 nM.

As to `NS(=O)(=O)NCc1nnc(C(c2nc3ccc(-c4ccc(F)nc4)cc3s2)S(=O)(=O)Cc2ccc(C(F)(F)F)cc2)o1` (centres unmarked) [Example 238, N-[(5-{[6-(6-fluoropyridin-3-yl)-1,3-benzothiazol-2-yl] [4-(trifluoromethyl)phenyl]methanesulfonylmethyl}-1,3,4-oxadiazol-2-yl)methyl]aminosulfonamide], the IC50 on Endothelial lipase (EL) amounted to 4 nM; at hepatic lipase (HL) it was 18 nM.

For the compound `CC(C)(C)[C@H](O)C(=O)NCc1nnc(C(c2nc3ccc(-c4ccccc4)cc3s2)S(C)(=O)=O)o1` (stereo partly drawn) [Example 155, (2S)-2-hydroxy-3,3-dimethyl-N-((5-((methylsulfonyl)(6-phenyl-1,3-benzothiazol-2-yl)methyl)-1,3,4-oxadiazol-2-yl)methyl)butanamide], the results for the IC50 at Endothelial lipase (EL) and at hepatic lipase (HL) were 137 nM and 26 nM, respectively.

As to `COCCN(C)C(=O)c1cccc(-c2ccc3nc(C(c4nnc(CC5(C)NC(=O)NC5=O)o4)S(C)(=O)=O)sc3c2)c1` (centres unmarked) [Example 227, 3-{2-[methanesulfonyl({5-[(4-methyl-2,5-dioxo-imidazolidin-4-yl)methyl]-1,3,4-oxadiazol-2-yl})methyl]-1,3-benzothiazol-6-yl}-N-(2-methoxyethyl)-N-methylbenzamide], the half-inhibitory concentration (IC50) at Endothelial lipase (EL) turned out to be 38 nM; at hepatic lipase (HL) it was 356 nM.

For `CS(=O)(=O)C(c1nnc(CNS(N)(=O)=O)o1)c1nc2ccc(-c3cccc(C(=O)N4CC(F)(F)C4)c3)cc2s1` (centres unmarked) [Example 251, N-{[5-({6-[3-(3,3-difluoroazetidine-1-carbonyl)phenyl]-1,3-benzothiazol-2-yl} (methanesulfonyl)methyl)-1,3,4-oxadiazol-2-yl]methyl} aminosulfonamide], the concentration for half-maximal inhibition (IC50) on Endothelial lipase (EL) stood at 9 nM; on hepatic lipase (HL) it was 21 nM.

In the case of `CN1CCN(C(=O)c2cccc(-c3ccc4nc(C(c5nnc(CNS(N)(=O)=O)o5)S(=O)(=O)Cc5ccccc5)sc4c3)c2)CC1` (centres unmarked) [Example 198, N-((5-((benzylsulfonyl)(6-(3-((4-methyl-1-piperazinyl)carbonyl)phenyl)-1,3-benzothiazol-2-yl)methyl)-1,3,4-oxadiazol-2-yl)methyl)sulfamide], the figures for the concentration for half-maximal inhibition (IC50) at Endothelial lipase (EL) and on hepatic lipase (HL) were less than 10 nM and 9180 nM, respectively.

Consider `CS(=O)(=O)C(c1nnc(CNS(N)(=O)=O)o1)c1nc2ccc(-c3cnn(CCN4CCOCC4)c3)cc2s1` (centres unmarked) [Example 132, N-((5-((methylsulfonyl)(6-(1-(2-(4-morpholinyl)ethyl)-1H-pyrazol-4-yl)-1,3-benzothiazol-2-yl)methyl)-1,3,4-oxadiazol-2-yl)methyl) sulfamide], for which the IC50 on Endothelial lipase (EL) came out at 32 nM; at hepatic lipase (HL), 22300 nM.

For the compound `COC(=O)CCS(=O)(=O)C(c1nnc(CNS(N)(=O)=O)o1)c1nc2ccc(-c3cnn(C)c3)cc2s1` (centres unmarked) [Example 112, methyl 3-(((6-(1-methyl-1H-pyrazol-4-yl)-1,3-benzothiazol-2-yl)(5-((sulfamoylamino)methyl)-1,3,4-oxadiazol-2-yl)methyl)sulfonyl)propanoate], the IC50 at Endothelial lipase (EL) and on hepatic lipase (HL) was less than 10 nM in each case.

Consider `NS(=O)(=O)NCc1nnc(C(c2nc3ccc(Br)cc3s2)S(=O)(=O)Cc2ccccc2)o1` (centres unmarked) [Example 124, N-((5-((benzylsulfonyl)(6-bromo-1,3-benzothiazol-2-yl)methyl)-1,3,4-oxadiazol-2-yl)methyl)sulfamide], for which the IC50 on Endothelial lipase (EL) was determined as 48 nM; on hepatic lipase (HL), 37 nM.

Take `CC1(Cc2nnc(C(c3nc4ccc(-c5cccc(C(=O)N6CC[C@H](O)C6)c5)cc4s3)S(C)(=O)=O)o2)NC(=O)NC1=O` (stereo partly drawn) [Example 207, 5-({5-[(6-{3-[(3S)-3-hydroxypyrrolidine-1-carbonyl]phenyl}-1,3-benzothiazol-2-yl) (methanesulfonyl)methyl]-1,3,4-oxadiazol-2-yl}methyl)-5-methyl-imidazolidine-2,4-dione]: the results for the IC50 at Endothelial lipase (EL) and at hepatic lipase (HL) were 22 nM and 370 nM, respectively.
